According to patent US20110065723A1, “COMPOSITIONS OF N-BENZYL-3-(4-CHLOROPHENYL)-2-[METHYL-[2-OXO-2-(3,4,5-TRIMETHOXYPHENYL)ACETYL]AMINO]-N-[3-(4-PYRIDYL)-1-[2-(4-PYRIDYL)ETHYL]PROPYL]PROPANAMIDE AND USES THEREOF” (priority 2009, published 2011):

Assays:
[1] = test system: Mycobacterium tuberculosis Erdman strain (Mtb ATCC 35801); assay: Susceptibility testing (broth microdilution MIC) with or without TIM; format: cell-based; conditions: TIM 10 μg/ml
[2] = test system: Mtb Erdman; assay: Mouse infection model (lung CFU); format: in vivo, C57BL/6 mice; conditions: mice, lungs; TIM 200, INH 25 mg/kg; 4 weeks; FIG. 4B; not to the same extent as RIF, statistically significant
[3] = in vivo; conditions: C57BL/6, mouse, po, 10 mg/kg; for AUC(0-inf): RIF AUCinf Plasma; for Cmax: RIF Cmax Plasma
[4] = test system: Mycobacterium tuberculosis Erdman strain in macrophages; assay: Mtb-THP-1 macrophage infection screening assay; format: cell-based
[5] = RIF 10 mg/kg + TIM 200 mg/kg dosed 6 hours prior to RIF

## CC(=O)NC[C@H]1CN(c2ccc(N3CCOCC3)c(F)c2)C(=O)O1 [Linezolid]
[1]
  in vitro effect of TIM on the activity of the drug against Mtb: no in vitro effect

## CO[C@H]1/C=C/O[C@@]2(C)Oc3c(C)c(O)c4c(O)c(c(/C=N/N5CCN(C6CCCC6)CC5)c(O)c4c3C2=O)NC(=O)/C(C)=C\C=C\[C@H](C)[C@H](O)[C@@H](C)[C@@H](O)[C@@H](C)[C@H](OC(C)=O)[C@@H]1C [Rifapentine, rifapentine]
[1]
  in vitro effect of TIM on the activity of the drug against Mtb: no in vitro effect

## NNC(=O)c1ccncc1 [Isoniazid, isoniazid]
[2]
  effect of TIM on activity in vivo: does enhance INH activity in vivo
[1]
  in vitro effect of TIM on the activity of the drug against Mtb: no in vitro effect

## COc1nc2ccc(Br)cc2cc1[C@@H](c1ccccc1)[C@@](O)(CCN(C)C)c1cccc2ccccc12 [TMC-207]
[1]; MIC without vs with TIM
  potentiating effect of TIM on the activity against Mtb: 15 fold

## COc1c(N2CCNC(C)C2)c(F)cc2c(=O)c(C(=O)O)cn(C3CC3)c12 (centres unmarked) [gatifloxacin]
[1]
  in vitro effect of TIM on the activity of the drug against Mtb: no in vitro effect

## CO[C@H]1/C=C/O[C@@]2(C)Oc3c(C)c(O)c4c(O)c(c(/C=N/N5CCN(C)CC5)c(O)c4c3C2=O)NC(=O)/C(C)=C\C=C\[C@H](C)[C@H](O)[C@@H](C)[C@@H](O)[C@@H](C)[C@H](OC(C)=O)[C@@H]1C [RIF, rifampicin]
[3]; [5]
  AUC(0-inf): 153 µg·h/mL
  Cmax: 14900 ng/mL
[3]; RIF 10 mg/kg alone
  AUC(0-inf): 152 µg·h/mL
  Cmax: 19800 ng/mL
[4]; Drug conc. 0.04 ug/mL
  Log10 CFU: 4.71 Log10 CFU
[4]; Drug conc. 0.1 ug/mL
  Log10 CFU: 4.47 Log10 CFU
[4]; Drug conc. 0.4 ug/mL
  Log10 CFU: 4.58 Log10 CFU
[4]; Drug conc. 1.1 ug/mL
  Log10 CFU: 3.98 Log10 CFU
[4]; Drug conc. 3.3 ug/mL
  Log10 CFU: 1.94 Log10 CFU
[4]; Drug conc. 10 ug/mL
  Log10 CFU: 2.12 Log10 CFU
[4]; Drug conc. 30 ug/mL
  Log10 CFU: 1.10 Log10 CFU

## CC(=O)NC[C@H]1CN(c2ccc(N3CCSCC3)c(F)c2)C(=O)O1 [U-100480]
[1]
  in vitro effect of TIM on the activity of the drug against Mtb: no in vitro effect

## acriflavin
[1]
  in vitro effect of TIM on the activity of the drug against Mtb: no in vitro effect

## CCc1cc(C(N)=S)ccn1 [ethionamide]
[1]
  in vitro effect of TIM on the activity of the drug against Mtb: no in vitro effect
